Assay results published in patent US8394967B2, “Antioxidant inflammation modulators: C-17 homologated oleanolic acid derivatives” (Reata Pharmaceuticals, Inc., priority 2008, dated 2013).
Structures can show the parent of a compound that is named as a salt. Where two headings read alike, the source gives them in different places.

Assays:
HO-1 = assay: Nrf2 target gene induction, MDA-MB-435 (qPCR): HO-1; type: cell-based; details: Homo sapiens; MDA-MB-435, 250 nM, 16 hours, mRNA by qPCR
Description: (§1) Nrf2 target gene induction. MDA-MB-435 human melanoma cells were treated with vehicle (DMSO) or the indicated compounds and concentrations for 16 hours. HO-1, thioredoxin reductase-1 (TrxR1), γ-glutamylcysteine synthetase (γ-GCS), and ferritin heavy chain mRNA levels were quantified using qPCR and were normalized relative to a DMSO-treated sample run in parallel. Values are averages of duplicate wells. Primer sequences are as follows.

[1] = tested on: NO production in RAW264.7 macrophages; assay: Inhibition of NO production in IFNγ-treated RAW264.7 macrophages (Griess reagent); type: cell-based, mouse; details: then 20 ng/ml IFNγ for 24 hours
Description: (§2) FIGS. 1-4, 6 and 8. Inhibition of NO Production. RAW264.7 macrophages were pre-treated with DMSO or drugs at various concentrations (nM) for 2 hours, then treated with 20 ng/ml IFNγ for 24 hours. NO concentration in media was determined using a Griess reagent system; cell viability was determined using WST-1 reagent.
(§3) Nitric Oxide production and cell viability. RAW264.7 macrophages were pre-treated with DMSO or drugs for 2 hours, then treated with recombinant mouse IFNγ (Sigma) for 24 hours. NO concentration in media was determined using the Griess reagent system (Promega). Cell viability was determined using WST-1 reagent (Roche).

γ-GCS = assay: Nrf2 target gene induction, MDA-MB-435 (qPCR): γ-GCS; type: cell-based; details: Homo sapiens; MDA-MB-435, 250 nM, 16 hours, mRNA by qPCR
Description: as §1

NQO1 = assay: Nrf2 target gene induction, MDA-MB-435 (qPCR): NQO1; type: cell-based; details: Homo sapiens; MDA-MB-435, 250 nM, 16 hours, mRNA by qPCR
RAW264.7 macrophages = assay: Cell viability of RAW264.7 macrophages (WST-1 reagent); type: cell-based, mouse; details: cell viability, RAW264.7, 20 ng/ml IFNγ 24 hours, WST-1 reagent, read-out: RAW264.7 (20 ng/ml IFNγ) WST-1 IC50
Description: as §2, §3

[2] = Mus musculus, RAW264.7, RAW264.7 macrophages pre-treated 2 hours

SMILES | IC50 [1, 2] [nM] | IC50 ([1]; RAW264.7 macrophages pre-treated 2 hours) [nM] | fold induction at 0.25 µM (HO-1) | fold induction at 0.25 µM (γ-GCS) | fold induction at 0.25 µM (NQO1) | IC50 (RAW264.7 macrophages; Mus musculus, RAW264.7, 24 h) [nM] | IC50 (RAW264.7 macrophages) [nM]
CC1(C)CC[C@]2(CNC(=O)C(F)(F)F)CC[C@]3(C)[C@H](C(=O)C[C@@H]4[C@@]5(C)C=C(C#N)C(=O)C(C)(C)[C@@H]5CC[C@]43C)[C@@H]2C1 [Compound 63226, N-(((4aS,6aR,6bR,12aR,14aR,14bS)-11-cyano-2,2,6a,6b,9,9,12a-heptamethyl-10,14-dioxo-1,2,3,4,4a,5,6,6a,6b,7,8,8a,9,10,12a,12b,13,14,14a,14b-icosahydropicen-4a-yl)methyl)-2,2,2-trifluoroacetamide] | ~12 | – | 4 | 6 | 2 | > 200 | –
CC1(C)CC[C@]2(CS(=O)(=O)c3ccccc3)CC[C@]3(C)[C@H](C(=O)C[C@@H]4[C@@]5(C)C=C(C#N)C(=O)C(C)(C)[C@@H]5CC[C@]43C)[C@@H]2C1 [Compound 63266, (4aR,6aR,6bR,8aS,12aS,12bR,14aR,14bR)-4,4,6a,6b,11,11,14b-heptamethyl-3,13-dioxo-8a-(phenylsulfonylmethyl)-3,4,4a,5,6,6a,6b,7,8,8a,9,10,11,12,12a,12b,13,14,14a,14b-icosahydropicene-2-carbonitrile] | ~30 | – | – | – | – | > 200 | –
C=C[C@]12CCC(C)(C)C[C@H]1[C@H]1C(=O)CC3[C@@]4(C)C=C(C#N)C(=O)C(C)(C)C4CC[C@@]3(C)[C@]1(C)CC2 (stereo partly drawn) [Compound 63213, (6aR,6bR,8aR,12aS,12bR,14bR)-4,4,6a,6b,11,11,14b-heptamethyl-3,13-dioxo-8a-vinyl-3,4,4a,5,6,6a,6b,7,8,8a,9,10,11,12,12a,12b,13,14,14a,14b-icosahydropicene-2-carbonitrile] | ~40 | – | – | – | – | ~200 | –
CC1(C)CC[C@]2(C(O)CBr)CC[C@]3(C)[C@H](C(=O)C[C@@H]4[C@@]5(C)C=C(C#N)C(=O)C(C)(C)[C@@H]5CC[C@]43C)[C@@H]2C1 (single isomer, unassigned) [Compound 63284] | – | ~15 | – | – | – | – | ~200
COC(=O)C[C@]12CCC(C)(C)C[C@H]1[C@H]1C(=O)C=C3[C@@]4(C)C=C(C#N)C(=O)C(C)(C)[C@@H]4CC[C@@]3(C)[C@]1(C)CC2 [Compound 402-50, methyl-2-((4aR,6aR,6bS,8aR,12aS,14aR,14bS)-11-cyano-2,2,6a,6b,9,9,12a-heptamethyl-10,14-dioxo-1,2,3,4,4a,5,6,6a,6b,7,8,8a,9,10,12a,14,14a,14b-octadecahydropicen-4a-yl)acetate] | ~2.5 | – | – | – | – | 75 | –
CC1(C)CC[C@]2(CC(=O)O)CC[C@]3(C)[C@H](C(=O)C=C4[C@@]5(C)C=C(C#N)C(=O)C(C)(C)[C@@H]5CC[C@]43C)[C@@H]2C1 [Compound 402-54, 2-((4aR,6aR,6bS,8aR,12aS,14aR,14bS)-11-cyano-2,2,6a,6b,9,9,12a-heptamethyl-10,14-dioxo-1,2,3,4,4a,5,6,6a,6b,7,8,8a,9,10,12a,14,14a,14b-octadecahydropicen-4a-yl)acetic acid] | ~6 | – | – | – | – | > 200 | –

Now from value to molecule, other results behind:

IC50 [1, 2] [nM] | IC50 ([1]; RAW264.7 macrophages pre-treated 2 hours) [nM] | SMILES | fold induction at 0.25 µM (HO-1) | fold induction at 0.25 µM (γ-GCS) | fold induction at 0.25 µM (NQO1) | IC50 (RAW264.7 macrophages; Mus musculus, RAW264.7, 24 h) [nM] | IC50 (RAW264.7 macrophages) [nM]
~25 | – | COC[C@]12CCC(C)(C)C[C@H]1[C@H]1C(=O)C[C@@H]3[C@@]4(C)C=C(C#N)C(=O)C(C)(C)[C@@H]4CC[C@@]3(C)[C@]1(C)CC2 [Compound 63228, (4aR,6aR,6bR,8aS,12aS,12bR,14aR,14bR)-8a-(methoxymethyl)-4,4,6a,6b,11,11,14b-heptamethyl-3,13-dioxo-3,4,4a,5,6,6a,6b,7,8,8a,9,10,11,12,12a,12b,13,14,14a,14b-icosahydropicene-2-carbonitrile] | 2 | 4 | 2 | 200 | –
~15 | – | CC1(C)CC[C@]2(CCO)CC[C@]3(C)[C@H](C(=O)C[C@@H]4[C@@]5(C)C=C(C#N)C(=O)C(C)(C)[C@@H]5CC[C@]43C)[C@@H]2C1 [Compound 63231, (4aR,6aR,6bR,8aR,12aS,12bR,14aR,14bR)-8a-(2-hydroxyethyl)-4,4,6a,6b,11,11,14b-heptamethyl-3,13-dioxo-3,4,4a,5,6,6a,6b,7,8,8a,9,10,11,12,12a,12b,13,14,14a,14b-icosahydropicene-2-carbonitrile] | 1.2 | 5 | 2.1 | > 200 | –
~20 | – | CC1(C)CC[C@]2(CNC(=O)OC(C)(C)C)CC[C@]3(C)[C@H](C(=O)CC4[C@@]5(C)C=C(C#N)C(=O)C(C)(C)C5CC[C@]43C)[C@@H]2C1 (stereo partly drawn) [Compound 63253, tert-butyl((4aS,6aR,6bR,12aR,14aR,14bS)-11-cyano-2,2,6a,6b,9,9,12a-heptamethyl-10,14-dioxo-1,2,3,4,4a,5,6,6a,6b,7,8,8a,9,10,12a,12b,13,14,14a,14b-icosahydropicen-4a-yl)methylcarbamate] | 2 | 3 | 1.5 | ~200 | –
~25 | – | CC1(C)CC[C@]2(CN)CC[C@]3(C)[C@H](C(=O)C[C@@H]4[C@@]5(C)C=C(C#N)C(=O)C(C)(C)[C@@H]5CC[C@]43C)[C@@H]2C1 [Compound 63214, (6aR,6bR,8aS,12aS,12bR,14bR)-8a-(aminomethyl)-4,4,6a,6b,11,11,14b-heptamethyl-3,13-dioxo-3,4,4a,5,6,6a,6b,7,8,8a,9,10,11,12,12a,12b,13,14,14a,14b-icosahydropicene-2-carbonitrile] | 2 | 3 | 1.8 | > 200 | –
~30 | – | CC1(C)CC[C@]2(CN)CC[C@]3(C)[C@H](C(=O)CC4[C@@]5(C)C=C(C#N)C(=O)C(C)(C)C5CC[C@]43C)[C@@H]2C1 (stereo partly drawn) [63214 salt, (6aR,6bR,8aS,12aS,12bR,14bR)-8a-(aminomethyl)-4,4,6a,6b,11,11,14b-heptamethyl-3,13-dioxo-3,4,4a,5,6,6a,6b,7,8,8a,9,10,11,12,12a,12b,13,14,14a,14b-icosahydropicene-2-carbonitrile, trifluoroacetic acid salt] | – | – | – | > 200 | –
~50 | – | CC1(C)CC[C@]2(COC(=O)C(C)(C)C)CC[C@]3(C)[C@H](C(=O)C[C@@H]4[C@@]5(C)C=C(C#N)C(=O)C(C)(C)[C@@H]5CC[C@]43C)[C@@H]2C1 [Compound 63297, ((4aS,6aR,6bR,8aR,12aR,12bR,14aR,14bS)-11-cyano-2,2,6a,6b,9,9,12a-heptamethyl-10,14-dioxo-1,2,3,4,4a,5,6,6a,6b,7,8,8a,9,10,12a,12b,13,14,14a,14b-icosahydropicen-4a-yl)methyl pivalate] | – | – | – | ~200 | –
~9 | – | CC1(C)CC[C@]2(CO)CC[C@]3(C)[C@H](C(=O)CC4[C@@]5(C)C=C(C#N)C(=O)C(C)(C)[C@@H]5CC[C@]43C)[C@@H]2C1 (stereo partly drawn) [Compound 402-63, (4aR,6aR,6bR,8aS,12aS,12bR,14bR)-8a-(hydroxymethyl)-4,4,6a,6b,11,11,14b-heptamethyl-3,13-dioxo-3,4,4a,5,6,6a,6b,7,8,8a,9,10,11,12,12a,12b,13,14,14a,14b-icosahydropicene-2-carbonitrile] | – | – | – | > 200 | –
